Reference: patent publication US12286425B2, “Herbicidally active bicyclic benzamides” (Bayer Aktiengesellschaft, priority 2018, dated 2025)

Assays:
Format in all cases: in vivo
[1] = system: AVEFA; assay: Pre-emergence herbicidal action (PE), greenhouse pot test, AVEFA; conditions: for herbicidal activity AVEFA: pre-emergence (PE), application rate 320, scored visually after about 3 weeks vs untreated controls, 100% = plants have died, 0% = like control plants
Text: (§1) 1. Pre-emergence herbicidal action and crop plant compatibility (pre-emergence, PE) Seeds of monocotyledonous and dicotyledonous weed plants and crop plants are placed in plastic or organic planting pots and covered with soil. The compounds of the invention, formulated in the form of wettable powders (WP) or as emulsion concentrates (EC), are then applied onto the surface of the covering soil as aqueous suspension or emulsion with addition of 0.5% additive at a water application rate of […] (converted). After the treatment, the pots are placed in a greenhouse and kept under good growth conditions for the trial plants. After about 3 weeks, the effect of the preparations is scored visually in comparison with untreated controls as percentages. The tables below show the herbicidal activity of numerous compounds according to the invention against important harmful plants. For example, 100% activity=the plants have died, 0% activity=like control plants.

[2] = system: monocotyledonous and dicotyledonous weeds and crop plants; assay: Post-emergence herbicidal action and crop plant compatibility (PO), including comparison with A-117; conditions: for Herbicidal activity ABUTH / Herbicidal activity ALOMY / Herbicidal activity AMARE / herbicidal activity AVEFA / Herbicidal activity ECHCG / Herbicidal activity PHBPU / Herbicidal activity LOLMU / Herbicidal activity MATIN / Herbicidal activity POLCO / Herbicidal activity SETVI / Herbicidal activity STEME / Herbicidal activity VERPE / Herbicidal activity VIOTR / Herbicidal activity CYPES: post-emergence (PO), application rate 80, rated visually after about 3 weeks; for Herbicidal activity ABUTH: Abutilon theophrasti; for Herbicidal activity ALOMY: Alopecurus myosuroides; for Herbicidal activity AMARE: Amaranthus retroflexus; for herbicidal activity AVEFA: Avena fatua; for Herbicidal activity ECHCG: Echinochloa crus-galli; for Herbicidal activity PHBPU: Ipomoea purpurea; for Herbicidal activity LOLMU: Lolium multiflorum; for Herbicidal activity MATIN: Matricaria inodora; for Herbicidal activity POLCO: Polygonum convolvulus; for Herbicidal activity SETVI: Setaria viridis; for Herbicidal activity STEME: Stellaria media; for Herbicidal activity VERPE: Veronica persica; for Herbicidal activity VIOTR: Viola tricolor; for Herbicidal activity CYPES: Cyperus esculentus
Method: 2. Post-emergence herbicidal action and crop plant compatibility (post-emergence, PO) Seeds of monocotyledonous and dicotyledonous weeds and crop plants are placed in sandy loam in plastic or organic planting pots, covered with soil and cultivated in a greenhouse under controlled growth conditions. 2 to 3 weeks after sowing, the test plants are treated at the one-leaf stage. The compounds of the invention, formulated in the form of wettable powders (WP) or as emulsion concentrates (EC), are then sprayed onto the green parts of the plants as aqueous suspension or emulsion with addition of 0.5% additive at a water application rate of […] (converted). After the test plants had been kept in the greenhouse under optimum growth conditions for about 3 weeks, the activity of the preparations is rated visually in comparison to untreated controls. The tables below show the herbicidal activity of numerous compounds according to the invention against important harmful plants. For example, 100% activity=the plants have died, 0% activity=like control plants.
(§2) In a comparative experiment, by way of example, the herbicidal activity of compound No. 2-13 according to the invention was compared to that of compound No. A-117 known from WO 2013/076315 A2.

[3] = system: monocotyledonous and dicotyledonous weed plants and crop plants; assay: Pre-emergence herbicidal action and crop plant compatibility (PE), other species and comparison with A-117; conditions: for Herbicidal activity ABUTH / Herbicidal activity AMARE / Herbicidal activity CYPES / Herbicidal activity ECHCG / Herbicidal activity MATIN / Herbicidal activity POLCO / Herbicidal activity STEME / Herbicidal activity VIOTR: pre-emergence (PE), application rate 320, scored visually after about 3 weeks; for Herbicidal activity ABUTH: Abutilon theophrasti; for Herbicidal activity AMARE: Amaranthus retroflexus; for Herbicidal activity CYPES: Cyperus esculentus; for Herbicidal activity ECHCG: Echinochloa crus-galli; for Herbicidal activity MATIN: Matricaria inodora; for Herbicidal activity POLCO: Polygonum convolvulus; for Herbicidal activity STEME: Stellaria media; for Herbicidal activity VIOTR: Viola tricolor
Text: as §1, §2

[4] = system: SETVI; assay: Pre-emergence herbicidal action (PE), greenhouse pot test, SETVI; conditions: for Herbicidal activity SETVI: pre-emergence (PE), Setaria viridis, application rate 320, scored visually after about 3 weeks
Text: as §1

Cn1nnnc1NC(=O)c1ccc(C(F)(F)F)c2c1OCCS2 [Example 2-13, 5-(trifluoromethyl)-2,3-dihydro-1,4-benzoxathiine-N-(1-methyltetrazol-5-yl)-8-carboxamide]
Herbicidal action against AVEFA ([1]; pre-emergence (PE) comparative experiment with A-117, Avena fatua, dosage 320 g/ha): 80%
herbicidal activity AVEFA [1]: 80%
Herbicidal action against ABUTH ([2]; post-emergence (PO) comparative experiment with A-117, Abutilon theophrasti, dosage 80 g/ha): 100%
Herbicidal action against ALOMY ([2]; post-emergence (PO) comparative experiment with A-117, Alopecurus myosuroides, dosage 80 g/ha): 90%
Herbicidal action against AVEFA ([2]; post-emergence (PO) comparative experiment with A-117, Avena fatua, dosage 80 g/ha): 90%
Herbicidal action against LOLMU ([2]; post-emergence (PO) comparative experiment with A-117, Lolium multiflorum, dosage 80 g/ha): 80%
Herbicidal action against POLCO ([2]; post-emergence (PO) comparative experiment with A-117, Polygonum convolvulus, dosage 80 g/ha): 80%
Herbicidal activity ABUTH [2]: 100%
Herbicidal activity ALOMY [2]: 90%
Herbicidal activity AMARE [2]: 90%
herbicidal activity AVEFA [2]: 90%
Herbicidal activity ECHCG [2]: 90%
Herbicidal activity PHBPU [2]: 90%
Herbicidal activity LOLMU [2]: 80%
Herbicidal activity MATIN [2]: 90%
Herbicidal activity POLCO [2]: 80%
Herbicidal activity SETVI [2]: 90%
Herbicidal activity STEME [2]: 90%
Herbicidal activity VERPE [2]: 100%
Herbicidal activity VIOTR [2]: 100%
herbicidal activity compared to compound No. A-117 ([2]; post-emergence comparative experiment, numerous harmful plants): superiority of the compound according to the invention was demonstrated clearly
Herbicidal action against ABUTH ([3]; pre-emergence (PE) comparative experiment with A-117, Abutilon theophrasti, dosage 320 g/ha): 100%
Herbicidal action against ALOMY ([3]; pre-emergence (PE) comparative experiment with A-117, Alopecurus myosuroides, dosage 320 g/ha): 90%
Herbicidal action against MATIN ([3]; pre-emergence (PE) comparative experiment with A-117, Matricaria inodora, dosage 320 g/ha): 100%
Herbicidal activity ABUTH [3]: 100%
Herbicidal activity AMARE [3]: 100%
Herbicidal activity CYPES [3]: 90%
Herbicidal activity ECHCG [3]: 100%
Herbicidal activity MATIN [3]: 100%
Herbicidal activity POLCO [3]: 80%
Herbicidal activity STEME [3]: 90%
Herbicidal activity VIOTR [3]: 100%
herbicidal activity compared to compound No. A-117 ([3]; pre-emergence comparative experiment, numerous harmful plants): superiority of the compound according to the invention was demonstrated clearly
Herbicidal action against SETVI ([4]; pre-emergence (PE) comparative experiment with A-117, Setaria viridis, dosage 320 g/ha): 100%
Herbicidal activity SETVI [4]: 100%

CCn1nnnc1NC(=O)c1ccc(C(F)(F)F)c2c1OCC[S+]2[O-] (stereo not shown) [Example 3-16]
herbicidal activity AVEFA [1]: 100%
Herbicidal activity ABUTH [2]: 100%
Herbicidal activity AMARE [2]: 100%
herbicidal activity AVEFA [2]: 100%
Herbicidal activity CYPES [2]: 90%
Herbicidal activity ECHCG [2]: 90%
Herbicidal activity PHBPU [2]: 100%
Herbicidal activity POLCO [2]: 90%
Herbicidal activity SETVI [2]: 90%
Herbicidal activity STEME [2]: 100%
Herbicidal activity VERPE [2]: 100%
Herbicidal activity VIOTR [2]: 100%
Herbicidal activity ABUTH [3]: 100%
Herbicidal activity AMARE [3]: 100%
Herbicidal activity CYPES [3]: 100%
Herbicidal activity ECHCG [3]: 100%
Herbicidal activity MATIN [3]: 100%
Herbicidal activity POLCO [3]: 100%
Herbicidal activity STEME [3]: 100%
Herbicidal activity VIOTR [3]: 100%
Herbicidal activity SETVI [4]: 100%

Cn1nnnc1NC(=O)c1ccc(C(F)(F)F)c2c1OCC[S+]2[O-] (stereo not shown) [Example 2-17, 5-(trifluoromethyl)-2,3-dihydro-1,4-benzoxathiine-N-(1-methyltetrazol-5-yl)-8-carboxamide 4-oxide]
herbicidal activity AVEFA [1]: 80%
Herbicidal activity ABUTH [2]: 100%
Herbicidal activity ALOMY [2]: 90%
Herbicidal activity AMARE [2]: 90%
herbicidal activity AVEFA [2]: 100%
Herbicidal activity CYPES [2]: 100%
Herbicidal activity ECHCG [2]: 90%
Herbicidal activity PHBPU [2]: 100%
Herbicidal activity LOLMU [2]: 90%
Herbicidal activity MATIN [2]: 90%
Herbicidal activity POLCO [2]: 90%
Herbicidal activity SETVI [2]: 90%
Herbicidal activity STEME [2]: 100%
Herbicidal activity VERPE [2]: 100%
Herbicidal activity VIOTR [2]: 100%
Herbicidal activity ABUTH [3]: 100%
Herbicidal activity AMARE [3]: 100%
Herbicidal activity CYPES [3]: 100%
Herbicidal activity ECHCG [3]: 100%
Herbicidal activity MATIN [3]: 90%
Herbicidal activity STEME [3]: 100%
Herbicidal activity VIOTR [3]: 100%
Herbicidal activity SETVI [4]: 100%
